In patent US12258328B2, “6-membered heteroaryl-containing aminopyridine compounds as EGFR inhibitors” (YUHAN CORPORATION, priority 2021, dated 2025):
Where two headings read alike, the source gives them in different places.

Tests used:
EGFR L858R/C797S = EGFR L858R/C797S (Homo sapiens, UniProt P00533, C797S/L858R); experiment: Biochemical EGFR kinase assay (Lance Ultra TR-FRET), double mutant L858R/C797S
Procedure, shortened: (§1)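 In this biochemical assay, phosphorylation after a one-hour room-temperature reaction was detected with europium-labelled anti-phosphopeptide antibody at 2 nM final concentration.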

EGFR del19/C797S = EGFR del19/C797S (Homo sapiens, UniProt P00533, C797S/DEL746-750); experiment: Biochemical EGFR kinase assay (Lance Ultra TR-FRET), double mutant del19/C797S
EGFR del19/C797S, sequence (P00533 with tags, fused parts or gaps DEL746-750/C797S): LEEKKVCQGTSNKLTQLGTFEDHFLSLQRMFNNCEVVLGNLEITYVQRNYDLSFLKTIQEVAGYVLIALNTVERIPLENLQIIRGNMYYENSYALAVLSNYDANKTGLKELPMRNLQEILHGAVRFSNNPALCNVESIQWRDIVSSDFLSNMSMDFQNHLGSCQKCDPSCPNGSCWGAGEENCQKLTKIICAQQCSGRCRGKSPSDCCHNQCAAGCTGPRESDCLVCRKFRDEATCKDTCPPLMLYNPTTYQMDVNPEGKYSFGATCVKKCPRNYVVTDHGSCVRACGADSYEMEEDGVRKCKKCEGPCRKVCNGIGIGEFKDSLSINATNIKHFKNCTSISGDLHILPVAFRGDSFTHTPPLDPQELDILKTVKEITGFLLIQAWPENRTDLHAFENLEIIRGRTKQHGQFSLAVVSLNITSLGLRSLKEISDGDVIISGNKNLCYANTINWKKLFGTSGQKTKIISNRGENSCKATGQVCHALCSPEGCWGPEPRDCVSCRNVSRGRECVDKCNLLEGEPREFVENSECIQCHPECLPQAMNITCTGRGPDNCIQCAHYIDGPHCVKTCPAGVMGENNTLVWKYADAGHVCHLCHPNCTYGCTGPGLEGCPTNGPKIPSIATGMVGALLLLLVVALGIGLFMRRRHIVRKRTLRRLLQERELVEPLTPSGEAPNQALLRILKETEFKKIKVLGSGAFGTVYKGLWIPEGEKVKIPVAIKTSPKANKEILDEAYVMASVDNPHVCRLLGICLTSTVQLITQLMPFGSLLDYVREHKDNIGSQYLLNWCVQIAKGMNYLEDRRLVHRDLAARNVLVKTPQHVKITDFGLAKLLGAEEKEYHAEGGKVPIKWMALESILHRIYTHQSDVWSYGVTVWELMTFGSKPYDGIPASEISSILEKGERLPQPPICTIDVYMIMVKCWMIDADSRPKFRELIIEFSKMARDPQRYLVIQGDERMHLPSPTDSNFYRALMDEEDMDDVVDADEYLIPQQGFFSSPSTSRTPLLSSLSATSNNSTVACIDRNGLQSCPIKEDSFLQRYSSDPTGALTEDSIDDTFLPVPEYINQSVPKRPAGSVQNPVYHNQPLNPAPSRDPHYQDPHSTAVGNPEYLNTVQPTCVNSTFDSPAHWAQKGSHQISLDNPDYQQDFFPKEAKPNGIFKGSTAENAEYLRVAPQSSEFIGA
Procedure, shortened: as §1

EGFR L858R/T790M/C797S = EGFR L858R/T790M/C797S (Homo sapiens, UniProt P00533, C797S/L858R/T790M); experiment: Biochemical EGFR kinase assay (Lance Ultra TR-FRET), triple mutant L858R/T790M/C797S
EGFR L858R/T790M/C797S, sequence (P00533 25-1210 T790M/C797S/L858R): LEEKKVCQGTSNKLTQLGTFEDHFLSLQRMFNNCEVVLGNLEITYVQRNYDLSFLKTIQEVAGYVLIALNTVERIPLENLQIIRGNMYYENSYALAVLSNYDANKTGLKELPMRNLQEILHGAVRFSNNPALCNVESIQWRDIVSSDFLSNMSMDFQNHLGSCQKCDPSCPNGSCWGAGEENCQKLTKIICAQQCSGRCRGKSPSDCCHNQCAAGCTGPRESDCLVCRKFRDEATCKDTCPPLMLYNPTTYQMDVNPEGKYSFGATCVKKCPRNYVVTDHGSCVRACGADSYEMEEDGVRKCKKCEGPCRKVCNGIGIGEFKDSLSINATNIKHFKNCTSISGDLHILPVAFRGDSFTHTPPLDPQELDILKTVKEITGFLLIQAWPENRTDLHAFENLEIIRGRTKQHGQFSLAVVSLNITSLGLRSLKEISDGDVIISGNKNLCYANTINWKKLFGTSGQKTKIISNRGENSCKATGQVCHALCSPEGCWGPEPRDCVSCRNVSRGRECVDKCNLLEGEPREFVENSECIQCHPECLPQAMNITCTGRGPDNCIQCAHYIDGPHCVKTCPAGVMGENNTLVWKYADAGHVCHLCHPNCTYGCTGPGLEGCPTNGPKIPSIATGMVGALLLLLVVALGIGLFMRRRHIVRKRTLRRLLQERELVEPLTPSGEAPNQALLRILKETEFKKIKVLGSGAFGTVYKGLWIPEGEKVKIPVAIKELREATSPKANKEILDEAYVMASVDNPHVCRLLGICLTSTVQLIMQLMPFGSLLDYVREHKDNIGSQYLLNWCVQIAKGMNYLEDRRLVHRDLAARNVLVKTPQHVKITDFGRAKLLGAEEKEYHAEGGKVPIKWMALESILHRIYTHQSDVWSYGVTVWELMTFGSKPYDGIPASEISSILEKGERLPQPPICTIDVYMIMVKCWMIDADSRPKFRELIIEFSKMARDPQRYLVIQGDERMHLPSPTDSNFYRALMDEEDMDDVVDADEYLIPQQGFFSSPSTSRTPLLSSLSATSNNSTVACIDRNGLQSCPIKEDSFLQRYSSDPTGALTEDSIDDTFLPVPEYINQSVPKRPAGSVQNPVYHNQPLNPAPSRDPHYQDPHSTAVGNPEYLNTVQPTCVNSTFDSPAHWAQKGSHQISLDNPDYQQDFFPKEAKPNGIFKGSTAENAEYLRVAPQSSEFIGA
Procedure, shortened: as §1

EGFR del19/T790M/C797S = EGFR del19/T790M/C797S (Homo sapiens, UniProt P00533, C797S/DEL746-750/T790M); experiment: Biochemical EGFR kinase assay (Lance Ultra TR-FRET), triple mutant del19/T790M/C797S
EGFR del19/T790M/C797S, sequence (P00533 with tags, fused parts or gaps DEL746-750/T790M/C797S): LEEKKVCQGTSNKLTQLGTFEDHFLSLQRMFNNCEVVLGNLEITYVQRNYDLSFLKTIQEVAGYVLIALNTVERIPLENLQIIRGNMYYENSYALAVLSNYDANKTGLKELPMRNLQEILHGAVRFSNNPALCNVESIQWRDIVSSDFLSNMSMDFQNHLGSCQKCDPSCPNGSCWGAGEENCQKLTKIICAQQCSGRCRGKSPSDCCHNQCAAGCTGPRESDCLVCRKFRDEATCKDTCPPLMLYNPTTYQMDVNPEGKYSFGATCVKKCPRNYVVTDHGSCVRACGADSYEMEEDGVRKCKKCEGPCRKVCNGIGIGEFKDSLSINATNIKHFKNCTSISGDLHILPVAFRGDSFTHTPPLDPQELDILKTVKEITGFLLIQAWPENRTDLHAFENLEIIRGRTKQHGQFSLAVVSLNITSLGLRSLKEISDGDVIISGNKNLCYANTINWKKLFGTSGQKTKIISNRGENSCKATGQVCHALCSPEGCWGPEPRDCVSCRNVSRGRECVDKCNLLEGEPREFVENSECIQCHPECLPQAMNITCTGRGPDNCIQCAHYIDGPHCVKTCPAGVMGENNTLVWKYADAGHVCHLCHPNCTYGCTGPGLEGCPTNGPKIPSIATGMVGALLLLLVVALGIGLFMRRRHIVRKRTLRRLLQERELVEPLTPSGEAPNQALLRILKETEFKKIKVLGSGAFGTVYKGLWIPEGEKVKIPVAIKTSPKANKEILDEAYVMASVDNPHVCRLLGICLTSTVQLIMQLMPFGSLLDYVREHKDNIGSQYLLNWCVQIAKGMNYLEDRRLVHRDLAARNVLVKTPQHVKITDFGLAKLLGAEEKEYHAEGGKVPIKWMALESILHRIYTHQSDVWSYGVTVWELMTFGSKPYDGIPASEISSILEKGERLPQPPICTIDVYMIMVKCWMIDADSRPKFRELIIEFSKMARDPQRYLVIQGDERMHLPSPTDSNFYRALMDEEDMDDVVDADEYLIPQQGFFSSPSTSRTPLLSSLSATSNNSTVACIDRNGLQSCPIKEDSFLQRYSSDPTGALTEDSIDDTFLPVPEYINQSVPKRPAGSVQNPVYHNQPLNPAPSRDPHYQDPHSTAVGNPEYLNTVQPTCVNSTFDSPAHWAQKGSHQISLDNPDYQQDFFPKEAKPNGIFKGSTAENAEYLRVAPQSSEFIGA
Procedure, shortened: as §1

EGFR wildtype = EGFR wildtype (Homo sapiens, UniProt P00533); experiment: Biochemical EGFR kinase assay (Lance Ultra TR-FRET), wildtype
Procedure, shortened: as §1

[1] = IC50 L858R/C797S (nM) 100 μM ATP, 100 μM ATP
[2] = Km ATP, read-out: IC50 L858R/C797S (nM) Km ATP
[3] = IC50 del19/C797S (nM) 100 μM ATP, 100 μM ATP
[4] = Km ATP, read-out: IC50 del19/C797S (nM) Km ATP
[5] = IC50 L858R/T790M/C797S (nM) 100 μM ATP, 100 μM ATP
[6] = Km ATP, read-out: IC50 L858R/T790M/C797S (nM) Km ATP
[7] = IC50 del19/T790M/C797S (nM) 100 μM ATP, 100 μM ATP
[8] = Km ATP, read-out: IC50 del19/T790M/C797S (nM) Km ATP
[9] = IC50 WT (nM) 100 μM ATP, 100 μM ATP
[10] = Km ATP, read-out: IC50 WT (nM) Km ATP

EGFR L858R/C797S, sequence (P00533 25-1210 C797S/L858R): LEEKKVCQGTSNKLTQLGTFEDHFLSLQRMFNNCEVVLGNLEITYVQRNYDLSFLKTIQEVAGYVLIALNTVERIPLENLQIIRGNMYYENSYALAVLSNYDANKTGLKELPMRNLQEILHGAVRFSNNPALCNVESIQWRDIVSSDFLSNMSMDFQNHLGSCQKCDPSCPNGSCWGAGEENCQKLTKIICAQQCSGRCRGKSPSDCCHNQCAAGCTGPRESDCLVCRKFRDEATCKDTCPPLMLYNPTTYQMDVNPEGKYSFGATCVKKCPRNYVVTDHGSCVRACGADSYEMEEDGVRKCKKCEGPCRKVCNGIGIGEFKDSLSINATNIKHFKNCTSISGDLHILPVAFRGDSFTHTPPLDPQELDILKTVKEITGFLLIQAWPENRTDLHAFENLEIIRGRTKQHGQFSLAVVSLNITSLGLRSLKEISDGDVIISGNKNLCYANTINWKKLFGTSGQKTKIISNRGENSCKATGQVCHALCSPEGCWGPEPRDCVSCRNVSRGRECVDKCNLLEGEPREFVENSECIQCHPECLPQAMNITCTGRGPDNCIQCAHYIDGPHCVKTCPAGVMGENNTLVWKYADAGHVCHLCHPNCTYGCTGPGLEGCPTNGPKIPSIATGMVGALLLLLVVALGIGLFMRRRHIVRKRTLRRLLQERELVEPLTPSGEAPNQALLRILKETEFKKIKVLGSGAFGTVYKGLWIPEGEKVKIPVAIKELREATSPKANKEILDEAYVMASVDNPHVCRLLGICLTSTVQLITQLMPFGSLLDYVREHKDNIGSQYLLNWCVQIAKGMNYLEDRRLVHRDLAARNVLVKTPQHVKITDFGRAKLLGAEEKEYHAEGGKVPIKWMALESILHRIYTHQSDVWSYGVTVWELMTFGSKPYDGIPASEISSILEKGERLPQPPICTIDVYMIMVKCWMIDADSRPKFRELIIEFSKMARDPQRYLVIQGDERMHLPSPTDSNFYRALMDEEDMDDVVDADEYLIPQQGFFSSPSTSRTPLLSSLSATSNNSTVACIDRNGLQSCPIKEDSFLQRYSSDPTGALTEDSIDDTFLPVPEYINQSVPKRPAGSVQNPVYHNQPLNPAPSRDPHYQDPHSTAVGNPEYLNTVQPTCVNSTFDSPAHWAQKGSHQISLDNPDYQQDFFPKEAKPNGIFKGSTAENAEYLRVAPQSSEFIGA

| Structure (SMILES) | IC50 (EGFR L858R/C797S; [1]) | IC50 (EGFR L858R/C797S; [2]) | IC50 (EGFR del19/C797S; [3]) | IC50 (EGFR del19/C797S; [4]) | IC50 (EGFR L858R/T790M/C797S; [5]) | IC50 (EGFR L858R/T790M/C797S; [6]) | IC50 (EGFR del19/T790M/C797S; [7]) | IC50 (EGFR del19/T790M/C797S; [8]) | IC50 (EGFR wildtype; [9]) | IC50 (EGFR wildtype; [10]) |
| --- | --- | --- | --- | --- | --- | --- | --- | --- | --- | --- |
| CC(C)(O)[C@H]1CC[C@@H](Nc2cc(Nc3ccnc(-c4cnn(S(=O)(=O)C5CC5)c4)n3)ncc2-c2ccc(N3CCC(F)(F)CC3)nn2)CC1 [Example 71, 2-((1s,4s)-4-((2-((2-(1-(Cyclopropylsulfonyl)-1H-pyrazol-4-yl)pyrimidin-4-yl)amino)-5-(6-(4,4-difluoropiperidin-1-yl)pyridazin-3-yl)pyridin-4-yl)amino)cyclohexyl)propan-2-ol] | 355 nM | – | 44.2 nM | – | 4.1 nM | – | 4.5 nM | – | > 10000 nM | – |
| CC(C)(O)[C@H]1CC[C@@H](Nc2cc(Nc3ccnc(-c4cnn(S(=O)(=O)C5CC5)c4)n3)ncc2-c2cnc(N3CCC(F)(F)CC3)cn2)CC1 [Example 72, 2-((1s,4s)-4-((2-((2-(1-(Cyclopropylsulfonyl)-1H-pyrazol-4-yl)pyrimidin-4-yl)amino)-5-(5-(4,4-difluoropiperidin-1-yl)pyrazin-2-yl)pyridin-4-yl)amino)cyclohexyl)propan-2-ol] | 2430 nM | 61.4 nM | 21.7 nM | 22.4 nM | 12.2 nM | 1.7 nM | 12.7 nM | 10.7 nM | > 10000 nM | 84.2 nM |
| CN(C)C[C@H]1CC[C@@H](Nc2cc(Nc3ccnc(-c4cnn(S(=O)(=O)C5CC5)c4)n3)ncc2-c2ccc(N3CCC(F)(F)CC3)nn2)CC1 [Example 73, N^2-(2-(1-(Cyclopropylsulfonyl)-1H-pyrazol-4-yl)pyrimidin-4-yl)-5-(6-(4,4-difluoropiperidin-1-yl)pyridazin-3-yl)-N^4-((1s,4s)-4-((dimethylamino)methyl)cyclohexyl)pyridine-2,4-diamine] | 16.3 nM | – | 0.5 nM | 0.4 nM | 0.5 nM | 0.2 nM | 0.7 nM | 0.4 nM | 562 nM | 2.2 nM |
| C[C@]1(O)CC[C@@H](Nc2cc(Nc3ccnc(-c4cnn(S(=O)(=O)C5CC5)c4)n3)ncc2-c2cc(C(F)F)ccn2)CC1 [Example 76, (1s,4s)-4-((6′-((2-(1-(Cyclopropylsulfonyl)-1H-pyrazol-4-yl)pyrimidin-4-yl)amino)-4-(difluoromethyl)-[2,3′-bipyridin]-4′-yl)amino)-1-methylcyclohexan-1-ol] | 14.5 nM | 2.1 nM | 2 nM | 1.6 nM | 0.8 nM | 0.9 nM | 1 nM | 2 nM | > 10000 nM | 8.1 nM |
| O=S(=O)(C1CC1)n1cc(-c2nccc(Nc3cc(N[C@H]4CC[C@@H](CO)CC4)c(-c4cc(C(F)F)ccn4)cn3)n2)cn1 [Example 77, ((1s,4s)-4-((6′-((2-(1-(Cyclopropylsulfonyl)-1H-pyrazol-4-yl)pyrimidin-4-yl)amino)-4-(difluoromethyl)-[2,3′-bipyridin]-4′-yl)amino)cyclohexyl)methanol] | 13 nM | 4.1 nM | 2.3 nM | 2.2 nM | 1.4 nM | 1.1 nM | 1.7 nM | 2.1 nM | 1560 nM | 4 nM |
| CN(C)C[C@H]1CC[C@@H](Nc2cc(Nc3ccnc(-c4cnn(S(=O)(=O)C5CC5)c4)n3)ncc2-c2cc(C(F)F)ccn2)CC1 [Example 79, N^6′-(2-(1-(Cyclopropylsulfonyl)-1H-pyrazol-4-yl)pyrimidin-4-yl)-4-(difluoromethyl)-N^4′-((1s,4s)-4-((dimethylamino)methyl)cyclohexyl)-[2,3′-bipyridine]-4′,6′-diamine] | 4.7 nM | 0.7 nM | 0.6 nM | 0.4 nM | 0.5 nM | 0.3 nM | 0.5 nM | 0.8 nM | 450 nM | 1.4 nM |
| O=S(=O)(C1CC1)n1cc(-c2nccc(Nc3cc(N[C@H]4CC[C@@H](CO)CC4)c(-c4ccc(N5CCCC5)cn4)cn3)n2)cn1 [Example 81, ((1s,4s)-4-((6′-((2-(1-(Cyclopropylsulfonyl)-1H-pyrazol-4-yl)pyrimidin-4-yl)amino)-5-(pyrrolidin-1-yl)-[2,3′-bipyridin]-4′-yl)amino)cyclohexyl)methanol] | 13 nM | 3.3 nM | 19 nM | 4 nM | 6 nM | 2 nM | 3.1 nM | 2.4 nM | 3650 nM | 11.7 nM |
| CC(C)(O)[C@H]1CC[C@@H](Nc2cc(Nc3ccnc(-c4cnn(S(=O)(=O)C5CC5)c4)n3)ncc2-c2ccc(N3CCCC3)cn2)CC1 [Example 82, 2-((1s,4s)-4-((6′-((2-(1-(Cyclopropylsulfonyl)-1H-pyrazol-4-yl)pyrimidin-4-yl)amino)-5-(pyrrolidin-1-yl)-[2,3′-bipyridin]-4′-yl)amino)cyclohexyl)propan-2-ol] | 73.3 nM | 7.8 nM | 13.3 nM | 7.9 nM | 15.4 nM | 2.8 nM | 10.5 nM | 6.5 nM | > 10000 nM | 29.6 nM |

More lines, in order of falling IC50 (EGFR L858R/C797S; [1]), values ahead:

| IC50 (EGFR L858R/C797S; [1]) | IC50 (EGFR L858R/C797S; [2]) | IC50 (EGFR del19/C797S; [3]) | IC50 (EGFR del19/C797S; [4]) | IC50 (EGFR L858R/T790M/C797S; [5]) | IC50 (EGFR L858R/T790M/C797S; [6]) | IC50 (EGFR del19/T790M/C797S; [7]) | IC50 (EGFR del19/T790M/C797S; [8]) | IC50 (EGFR wildtype; [9]) | IC50 (EGFR wildtype; [10]) | Structure (SMILES) |
| --- | --- | --- | --- | --- | --- | --- | --- | --- | --- | --- |
| 313 nM | 68.9 nM | 33.2 nM | 34 nM | 15.2 nM | 6.6 nM | 15.2 nM | 8.7 nM | > 10000 nM | 143 nM | C[C@]1(O)CC[C@@H](Nc2cc(Nc3ccnc(-c4cnn(S(=O)(=O)C5CC5)c4)n3)ncc2-c2cnc(N3CCC(F)(F)CC3)cn2)CC1 [Example 75, (1s,4s)-4-((2-((2-(1-(Cyclopropylsulfonyl)-1H-pyrazol-4-yl)pyrimidin-4-yl)amino)-5-(5-(4,4-difluoropiperidin-1-yl)pyrazin-2-yl)pyridin-4-yl)amino)-1-methylcyclohexan-1-ol] |
| 85.5 nM | 16.6 nM | 15.8 nM | 8.8 nM | 5.4 nM | – | 5.5 nM | 6.8 nM | > 10000 nM | 23.6 nM | CC(C)(O)[C@H]1CC[C@@H](Nc2cc(Nc3ccnc(-c4cnn(S(=O)(=O)C5CC5)c4)n3)ncc2-c2cc(C(F)F)ccn2)CC1 [Example 78, 2-((1s,4s)-4-((6′-((2-(1-(Cyclopropylsulfonyl)-1H-pyrazol-4-yl)pyrimidin-4-yl)amino)-4-(difluoromethyl)-[2,3′-bipyridin]-4′-yl)amino)cyclohexyl)propan-2-ol] |
| 81.1 nM | – | 13.1 nM | – | 4.9 nM | – | 3.9 nM | – | > 10000 nM | – | O=S(=O)(C1CC1)n1cc(-c2nccc(Nc3cc(N[C@H]4CC[C@@H](CO)CC4)c(-c4cnc(N5CCC(F)(F)CC5)cn4)cn3)n2)cn1 [Example 70, ((1s,4s)-4-((2-((2-(1-(Cyclopropylsulfonyl)-1H-pyrazol-4-yl)pyrimidin-4-yl)amino)-5-(5-(4,4-difluoropiperidin-1-yl)pyrazin-2-yl)pyridin-4-yl)amino)cyclohexyl)methanol] |
| 52.7 nM | 1.4 nM | 5.3 nM | 2.4 nM | 1.4 nM | 0.8 nM | 1.6 nM | 1.9 nM | 4780 nM | 14.5 nM | O=S(=O)(C1CC1)n1cc(-c2nccc(Nc3cc(N[C@H]4CC[C@@H](CO)CC4)c(-c4ccc(N5CCC(F)(F)CC5)nn4)cn3)n2)cn1 [Example 69, ((1s,4s)-4-((2-((2-(1-(Cyclopropylsulfonyl)-1H-pyrazol-4-yl)pyrimidin-4-yl)amino)-5-(6-(4,4-difluoropiperidin-1-yl)pyridazin-3-yl)pyridin-4-yl)amino)cyclohexyl)methanol] |
| 43.9 nM | 3.2 nM | 2.4 nM | 0.7 nM | 2.8 nM | 0.6 nM | 2.2 nM | 1.6 nM | 1610 nM | 9.1 nM | CN(C)C[C@H]1CC[C@@H](Nc2cc(Nc3ccnc(-c4cnn(S(=O)(=O)C5CC5)c4)n3)ncc2-c2cnc(N3CCC(F)(F)CC3)cn2)CC1 [Example 74, N^2-(2-(1-(Cyclopropylsulfonyl)-1H-pyrazol-4-yl)pyrimidin-4-yl)-5-(5-(4,4-difluoropiperidin-1-yl)pyrazin-2-yl)-N^4-((1s,4s)-4-((dimethylamino)methyl)cyclohexyl)pyridine-2,4-diamine] |
| 11.1 nM | 2.3 nM | 8.4 nM | 2.5 nM | 6.3 nM | 2.8 nM | 6.2 nM | 3.8 nM | 4410 nM | 11.4 nM | C[C@]1(O)CC[C@@H](Nc2cc(Nc3ccnc(-c4cnn(S(=O)(=O)C5CC5)c4)n3)ncc2-c2ccc(N3CCCC3)cn2)CC1 [Example 80, (1s,4s)-4-((6′-((2-(1-(Cyclopropylsulfonyl)-1H-pyrazol-4-yl)pyrimidin-4-yl)amino)-5-(pyrrolidin-1-yl)-[2,3′-bipyridin]-4′-yl)amino)-1-methylcyclohexan-1-ol] |
